What was measured:
[1] = biological target: T1, Sentrin-specific protease 2 (Homo sapiens, UniProt Q9HC62); test: Inhibition of recombinant human SNEP2 (365 to 589 residues) expressed in Escherichia coli (DE3) cells using RanGAP-SUMO2 substrate preincubated for 10 mins followed by substrate addition and measured after 25 min by Coomassie blue staining based SDS-PAGE analysis
T1 sequence (Q9HC62 whole entry): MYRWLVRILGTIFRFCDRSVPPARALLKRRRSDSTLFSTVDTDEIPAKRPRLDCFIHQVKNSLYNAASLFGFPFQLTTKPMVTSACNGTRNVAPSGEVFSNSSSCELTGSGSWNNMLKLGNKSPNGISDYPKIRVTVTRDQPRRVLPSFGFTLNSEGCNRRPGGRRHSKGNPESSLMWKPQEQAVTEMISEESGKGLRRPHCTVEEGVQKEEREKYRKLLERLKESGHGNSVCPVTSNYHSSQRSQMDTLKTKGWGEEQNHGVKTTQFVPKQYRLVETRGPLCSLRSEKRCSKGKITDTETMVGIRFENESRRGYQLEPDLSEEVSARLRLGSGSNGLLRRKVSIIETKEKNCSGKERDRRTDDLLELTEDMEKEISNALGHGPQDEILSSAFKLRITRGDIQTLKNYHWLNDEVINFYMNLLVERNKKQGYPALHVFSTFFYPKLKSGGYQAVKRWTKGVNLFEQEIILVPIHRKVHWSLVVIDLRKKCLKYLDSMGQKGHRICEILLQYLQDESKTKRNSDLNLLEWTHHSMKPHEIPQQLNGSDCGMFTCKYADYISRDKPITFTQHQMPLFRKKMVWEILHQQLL

[2] = biological target: T2, Sentrin-specific protease 5 (Homo sapiens, UniProt Q96HI0); test: Inhibition of recombinant human SNEP5 (567 to 755 residues) expressed in Escherichia coli (DE3) cells using RanGAP-SUMO2 substrate preincubated for 10 mins followed by substrate addition and measured after 25 min by Coomassie blue staining based SDS-PAGE analysis
T2 sequence (Q96HI0 whole entry): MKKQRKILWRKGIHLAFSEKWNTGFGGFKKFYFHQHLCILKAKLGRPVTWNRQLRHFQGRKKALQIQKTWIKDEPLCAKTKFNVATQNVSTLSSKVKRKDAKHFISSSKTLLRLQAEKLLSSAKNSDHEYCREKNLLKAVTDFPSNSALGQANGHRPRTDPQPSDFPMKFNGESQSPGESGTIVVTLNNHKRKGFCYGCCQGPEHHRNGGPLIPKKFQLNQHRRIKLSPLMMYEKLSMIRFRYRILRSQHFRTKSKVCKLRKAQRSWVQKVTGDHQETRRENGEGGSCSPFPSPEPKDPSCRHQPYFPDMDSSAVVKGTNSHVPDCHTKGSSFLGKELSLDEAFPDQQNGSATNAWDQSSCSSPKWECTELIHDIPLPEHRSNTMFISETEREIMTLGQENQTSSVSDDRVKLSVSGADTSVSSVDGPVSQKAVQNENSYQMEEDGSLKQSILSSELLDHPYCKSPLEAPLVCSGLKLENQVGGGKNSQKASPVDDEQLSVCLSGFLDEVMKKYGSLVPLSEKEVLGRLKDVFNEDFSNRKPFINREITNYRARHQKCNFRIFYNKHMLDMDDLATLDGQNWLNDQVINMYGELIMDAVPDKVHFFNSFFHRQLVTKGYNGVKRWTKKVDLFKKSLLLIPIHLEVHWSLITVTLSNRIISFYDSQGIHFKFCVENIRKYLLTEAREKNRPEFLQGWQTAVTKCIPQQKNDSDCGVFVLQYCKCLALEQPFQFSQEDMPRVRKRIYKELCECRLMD

[3] = biological target: T3, Sentrin-specific protease 1 (Homo sapiens, UniProt Q9P0U3); test: Inhibition of recombinant human SNEP1 (419 to 644 residues) expressed in Escherichia coli (DE3) cells using RanGAP-SUMO2 substrate preincubated for 10 mins followed by substrate addition and measured after 25 min by Coomassie blue staining based SDS-PAGE analysis
T3 sequence (Q9P0U3 whole entry): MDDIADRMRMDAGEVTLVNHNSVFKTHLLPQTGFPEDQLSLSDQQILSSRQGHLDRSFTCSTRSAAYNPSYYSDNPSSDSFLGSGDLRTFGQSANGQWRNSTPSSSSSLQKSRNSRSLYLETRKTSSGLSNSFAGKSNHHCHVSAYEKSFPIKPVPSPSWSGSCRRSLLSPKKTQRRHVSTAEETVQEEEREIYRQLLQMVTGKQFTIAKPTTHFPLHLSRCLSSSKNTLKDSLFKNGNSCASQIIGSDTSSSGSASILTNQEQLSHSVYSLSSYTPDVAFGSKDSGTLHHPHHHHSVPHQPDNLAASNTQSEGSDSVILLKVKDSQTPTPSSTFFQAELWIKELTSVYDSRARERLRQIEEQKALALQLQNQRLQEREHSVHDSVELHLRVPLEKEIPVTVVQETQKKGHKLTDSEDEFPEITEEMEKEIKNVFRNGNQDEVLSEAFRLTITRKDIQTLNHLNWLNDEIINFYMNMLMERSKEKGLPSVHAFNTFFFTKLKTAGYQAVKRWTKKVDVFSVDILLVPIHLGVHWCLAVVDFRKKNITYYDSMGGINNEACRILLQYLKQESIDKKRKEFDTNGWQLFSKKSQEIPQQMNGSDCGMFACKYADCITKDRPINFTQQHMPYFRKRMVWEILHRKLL

[4] = Inhibition of recombinant human SNEP1 F496A mutant (419 to 644 residues) expressed in Escherichia coli (DE3) cells using RanGAP-SUMO2 substrate preincubated for 10 mins followed by substrate addition and measured after 25 min by Coomassie blue staining based SDS-PAGE analysis
[5] = Inhibition of recombinant human SNEP1 H529A mutant (419 to 644 residues) expressed in Escherichia coli (DE3) cells using RanGAP-SUMO2 substrate preincubated for 10 mins followed by substrate addition and measured after 25 min by Coomassie blue staining based SDS-PAGE analysis
[6] = Inhibition of recombinant human SNEP1 W465A mutant (419 to 644 residues) expressed in Escherichia coli (DE3) cells using RanGAP-SUMO2 substrate preincubated for 10 mins followed by substrate addition and measured after 25 min by Coomassie blue staining based SDS-PAGE analysis
[7] = Inhibition of recombinant human SNEP1 K455A mutant (419 to 644 residues) expressed in Escherichia coli (DE3) cells using RanGAP-SUMO2 substrate preincubated for 10 mins followed by substrate addition and measured after 25 min by Coomassie blue staining based SDS-PAGE analysis
[8] = Inhibition of recombinant human SNEP1 Q597A mutant (419 to 644 residues) expressed in Escherichia coli (DE3) cells using RanGAP-SUMO2 substrate preincubated for 10 mins followed by substrate addition and measured after 25 min by Coomassie blue staining based SDS-PAGE analysis

Row | Structure (SMILES) | IC50 [1] | IC50 [2] | IC50 [3] | IC50 [4] | IC50 [5] | IC50 [6] | IC50 [7] | IC50 [8]
1 | CC(=O)Nc1cccc(CNC(=O)c2sc3ccccc3c2OCc2ccccc2)c1 | 52.9 µM | 28.9 µM | 25.4 µM | – | – | – | – | –
2 | CCOC(=O)CNc1ccc2sc(C(=O)NCc3cccc(NC(=O)c4cccs4)c3)c(OCc3ccccc3)c2c1 | – | – | – | 5.92 µM | 21.2 µM | 40.7 µM | 3.42 µM | 22.4 µM
3 | Nc1ccc(C(=O)Nc2cccc(CNC(=O)c3sc4ccccc4c3OCc3ccccc3)c2)cc1 | – | > 100 µM | – | – | – | – | – | –

Source: ChEMBL document CHEMBL4765398, “Benzothiophene-2-carboxamide derivatives as SENPs inhibitors with selectivity within SENPs family” (Eur J Med Chem, 2020)
